Here are results for 1 compound from patent publication US11959486B2, “Stable liquid formulation of AMG 416 (etelcalcetide)” (AMGEN INC., priority 2013, dated 2024).

Where two headings read alike, the source gives them in different places.

The conditions of this series: for Degradation at 2 y: 3.4 mg/mL in succinate-buffered saline. Here is the method:
In this study, the long term stability of a liquid formulation of AMG 416, at a concentration of 3.4 mg/mL, was determined over a range of pH in succinate-buffered saline. USP purified water (1200 mL) was dispensed into a glass beaker. Sodium succinate (4.05 g) and sodium chloride (13.5 g) were added and stirred to dissolve. The pH was adjusted to 2.5 with 1N NaOH and/or 1N HCl as required. […] The solution was divided into three portions and the pH for each portion was adjusted to 2.5, 3.0 and 3.5, respectively. Each solution was filtered separately through 0.22 micron PVDF filter and dispense 2 mL to 5-cc vials. After being stoppered, sealed, and labeled, the vials were place in designated stability chambers at 5° C.±3, 25° C.±2, and 40° C.±2. Samples were retrieved according to schedule and diluted with deionized water to 1.0 mg/mL for HPLC analysis.

Consider `CC(=O)N[C@H](CSSC[C@H](N)C(=O)O)C(=O)N[C@H](C)C(=O)N[C@H](CCCNC(=N)N)C(=O)N[C@H](CCCNC(=N)N)C(=O)N[C@H](CCCNC(=N)N)C(=O)N[C@H](C)C(=O)N[C@H](CCCNC(=N)N)C(N)=O` [AMG 416, N-acetyl-D-cysteinyl-D-alanyl-D-arginyl-D-arginyl-D-arginyl-D-alanyl-D-arginamide disulfide with L-cysteine], for which the “Degradation at 2 y” value was 4.4% (pH 2.5, 5° C.); 30.7% (pH 2.5, 25° C.); 78.8% (pH 2.5, 40° C.); 1.5% (pH 3, 5° C.); 14.6% (pH 3, 25° C.); 60.0% (pH 3, 40° C.). Further, the “Degradation at 2 y” value reads like this: (pH 3.5, 5° C.) 0.9%; (pH 3.5, 25° C.) 10.0%; (pH 3.5, 40° C.) 53.1%. The stability over shelf-life entry (refrigerated conditions) is reported as “adequate stability of AMG 416 over at least a two year shelf-life”.
